The values below come from EPA's ToxValDB 9.5.

≈ marks a conversion by molar mass, not a printed value.

For one data set, the system named is Gallus gallus. The note with it: subchronic, oral, diet.
The next data set concerns Sus scrofa. The following applies: subchronic; duration: 42 days; oral; diet; M/F; Not specified; body weight.
The next data set relates to Bovidae. The following applies: subchronic; duration: 57 days; oral; diet; no effects.
A further data set relates to Danio rerio. The note with it: acute; duration: 96 hours; mortality.
A further data set relates to Rattus norvegicus. The note with it: for LD50: acute, mortality.
The subject of another data set is Apis mellifera. The note with it: acute, mortality.
The next data set has as its system Typhlodromus pyri. The data set can be described thus: LR50; higher = less toxic. The note with it: not reported; mortality.
For a further data set, the system named is Anas platyrhynchos. The note with it: for LD50 / LC50: oral, mortality.
The test system of a further data set is Cyprinodon variegatus. The following applies: acute; duration: 96 hours; mortality.
A further data set concerns Bibionidae. The following applies: chronic/long-term.
The next data set has as its system Colinus virginianus. The note with it: acute, oral, mortality.
The next data set deals with Tagia sp. The following applies: acute, mortality.
In the next data set the test system is Oryctolagus sp. The note with it: developmental; development.
The next data set deals with Mus musculus. The note with it: oral.
The subject of the next data set is Pontoscolex corethrurus. The note with it: acute; mortality.
A further data set deals with Homo sapiens. The following applies: clinical.
For another data set, the system named is Lepomis macrochirus. The note with it: acute; duration: 96 hours; mortality.
In another data set the test system is Canidae. The following applies: oral, Dog Other.
Setting [1] is: reproduction developmental, no effects.
Setting [2] is: acute, duration: 96 hours, mortality.
The mark [3] stands for this setting: chronic/long-term, duration: 21 days.
The mark [4] stands for this setting: subchronic, duration: 90 days, oral, hematological.

Consider `CSCCC(O)C(=O)[O-].CSCCC(O)C(=O)[O-].[Zn+2]` (stereo unspecified), for which the LEL in the data set on Gallus gallus (duration: 8 weeks, clinical chemistry) stood at 450 mg/kg-day; in the data set with Gallus gallus (duration: 35 days, Chicken, body weight) it was 450 mg/kg-day; in the data set on Sus scrofa it was 450 mg/kg-day; in the data set with Bovidae, 450 mg/kg-day.

In turn, `CC(C)[C@@H](C)[C@@H](O)[C@H](O)[C@@H](C)[C@H]1CC[C@H]2[C@@H]3COC(=O)[C@H]4C[C@H](O)[C@H](O)C[C@]4(C)[C@H]3CC[C@]12C` gave an LC50 with Danio rerio above 5 µg/mL. The LD50 with Rattus norvegicus (oral) is above 5000 mg/kg-day; with Apis mellifera (duration: 48 hours, dermal), above 10 µg/piece; in the data set on Apis mellifera (duration: 48 hours, oral, unspecified), above 92.2 µg/piece. Moreover, the NOEL with Rattus norvegicus (setting [1]) is at least 1000 mg/kg-day. In the data set with Typhlodromus pyri, this molecule came in with an LR50 of 0.28 g/ha.

In general, NOAEL refers to the highest dose or exposure tested at which no adverse effect was seen. On to `ClC=CCCl` [1,3-Dichloropropene], for which the LD50 in the data set on Rattus norvegicus (oral) was found to be 130 mg/kg-day; with Anas platyrhynchos (short-term, feed), 1080 mg/kg-day; in the data set with Colinus virginianus, 92 mg/kg-day. In the data set on Rattus norvegicus (chronic, duration: 2 years, oral, diet, histopathology: neoplastic), this molecule showed an NOAEL of 2.5 mg/kg-day. The NOEC with Anas platyrhynchos (reproductive) was found to be 36 mg/kg-day; in the data set on Bibionidae (duration: 28 days, other), 0.369 mg/L; in the data set on Pimephales promelas (chronic/long-term, duration: 33 days, growth), 0.0069 mg/L. In the data set on Cyprinodon variegatus, this molecule showed an LC50 of 0.87 µg/mL (≈ 7.84 µM).

As for `CCCCCCCCCCO` [1-Decanol], the LD50 with Rattus norvegicus (oral) was 4720 mg/kg-day; with Anas platyrhynchos (acute, unspecified) it was above 4640 mg/kg-day; in the data set with Apis mellifera (duration: 48 hours, dermal) it was above 13.8 µg/piece. This molecule yielded a no-observed-adverse-effect level (NOAEL) in the data set on Rattus norvegicus (setting [1]) of 1000 mg/kg-day. The LC50 is above 2550 mg/kg-day in the data set on Anas platyrhynchos (short-term, feed); above 628 mg/kg in the data set with Tagia sp. (duration: 14 days); 2.4 µg/mL (≈ 15.2 µM) in the data set on Pimephales promelas (setting [2]). Besides, the NOEC is 0.51 mg/L with Daphnia magna (setting [3]) and 0.0064 mg/L in the data set with Oncorhynchus mykiss (chronic/long-term, duration: 28 days, growth).

In the data set with Daphnia magna (acute, mortality), `CC(=O)c1cc(C)sc1C` [3-Acetyl-2,5-dimethylthiophene] came in with an LC50 of 6.95 µg/mL (≈ 45.1 µM).

In the case of `Oc1cccc2cccnc12` [8-Hydroxyquinoline], the NOAEL with Oryctolagus sp. was determined as 5 mg/kg-day; with Rattus norvegicus (chronic, duration: 2 years, body weight), 73.3 mg/kg-day; with Rattus norvegicus (setting [4]), 97.7 mg/kg-day. Moreover, the LD50 in the data set with Mus musculus (acute, mortality) was 177 mg/kg; in the data set on Apis mellifera (oral, unspecified), above 68.6 µg/piece; in the data set with Colinus virginianus (diet), above 1070 mg/kg-day; with Colinus virginianus it was 311 mg/kg. Also, the LC50 is above 409 mg/kg with Tagia sp. and 2 µg/mL (≈ 13.8 µM) in the data set with Oncorhynchus mykiss (setting [2]).

With `CC/C=C\CCCCC=O` [(Z)-Non-6-enal], the LC50 in the data set on Pontoscolex corethrurus was 191 mg/kg; in the data set with Daphnia magna (acute, mortality) it was 8 µg/mL (≈ 57.1 µM).

In the case of `COC(=O)CCC(=O)O[C@H]1CC(C)(C)C(/C=C/C(C)=C/C=C/C(C)=C/C=C/C=C(C)/C=C/C=C(C)/C=C/C2=C(C)C(=O)[C@@H](OC(=O)CCC(=O)OC)CC2(C)C)=C(C)C1=O` [Astaxanthin dimethylsuccinate], the NOAEL in the data set with Mus musculus (chronic, duration: 80 weeks, body weight) worked out at 14 mg/kg-day. Besides, in the data set on Oncorhynchus mykiss (chronic/long-term, duration: 8 weeks, oral, feed, no effects), the LEL came to 908 mg/kg.

Consider `CC1=C(/C=C/C(C)=C/C=C/C(C)=C/C=C/C=C(C)/C=C/C=C(C)/C=C/C2=C(C)C(=O)CCC2(C)C)C(C)(C)CCC1=O` [Canthaxanthin], for which the NOAEL in the data set with Homo sapiens (ophthalmoscopic examination) amounted to 0.25 mg/kg-day.

In the data set on Homo sapiens (duration: 12 weeks, oral, drinking water, M, no effects), `[O-][Cl+2]([O-])[O-]` [Chlorate] yielded an NOEL of 0.036 mg/kg-day.

`Cc1cc(C2CC2)nc(Nc2ccccc2)n1` [Cyprodinil]: the NOEC with Bibionidae (duration: 27 days) was determined as 80 mg/kg; with Bibionidae (duration: 28 days), 0.24 mg/L; in the data set with Daphnia magna (setting [3]), 0.0018 mg/L; with Oncorhynchus mykiss (setting [3]), 0.083 mg/L. In addition, the LC50 was found to be 1.35 µg/mL (≈ 5.99 µM) with Oncorhynchus mykiss (setting [2]) and 2.17 µg/mL (≈ 9.63 µM) in the data set on Lepomis macrochirus.

Regarding `c1ccc(Nc2ccccc2)cc1` [Diphenylamine], the NOAEL with Rattus norvegicus (chronic, duration: 2 years, hematological) was 7.5 mg/kg-day; in the data set with Rattus norvegicus (subchronic, duration: 90 days, oral, clinical chemistry) it was 9.6 mg/kg-day; in the data set on Rattus norvegicus (setting [4]), 9.6 mg/kg-day; with Canidae (chronic, duration: 1 years, clinical chemistry), 10 mg/kg-day; in the data set with Canidae (chronic, duration: 1 years, hematological) it was 10 mg/kg-day; with Canidae (subchronic, duration: 90 days, clinical chemistry), 10 mg/kg-day. This molecule also displayed an NOAEL with Canidae (subchronic, duration: 90 days, hematological) of 10 mg/kg-day. The LC50 came out at 2290 mg/kg-day in the data set on Anas platyrhynchos (short-term, feed) and 2.2 µg/mL (≈ 13 µM) in the data set with Oncorhynchus mykiss (setting [2]). The NOEC was below 0.38 mg/L in the data set with Daphnia magna (acute, duration: 48 hours, mortality) and 0.71 mg/L in the data set on Oncorhynchus mykiss (setting [2]). In the data set on Colinus virginianus, the LD50 is above 2250 mg/kg-day.
